Results from ChEMBL document CHEMBL4507263, “Data for DCP probe BAY-474” (2021).

Tests used:
[1] = molecular target: T1, cGMP-dependent protein kinase 1 (Homo sapiens) (UniProt Q13976); experiment: PKG1beta (h) Millipore kinase activity assay; conditions: Compound concentration 1.0 uM
T1 sequence (whole entry): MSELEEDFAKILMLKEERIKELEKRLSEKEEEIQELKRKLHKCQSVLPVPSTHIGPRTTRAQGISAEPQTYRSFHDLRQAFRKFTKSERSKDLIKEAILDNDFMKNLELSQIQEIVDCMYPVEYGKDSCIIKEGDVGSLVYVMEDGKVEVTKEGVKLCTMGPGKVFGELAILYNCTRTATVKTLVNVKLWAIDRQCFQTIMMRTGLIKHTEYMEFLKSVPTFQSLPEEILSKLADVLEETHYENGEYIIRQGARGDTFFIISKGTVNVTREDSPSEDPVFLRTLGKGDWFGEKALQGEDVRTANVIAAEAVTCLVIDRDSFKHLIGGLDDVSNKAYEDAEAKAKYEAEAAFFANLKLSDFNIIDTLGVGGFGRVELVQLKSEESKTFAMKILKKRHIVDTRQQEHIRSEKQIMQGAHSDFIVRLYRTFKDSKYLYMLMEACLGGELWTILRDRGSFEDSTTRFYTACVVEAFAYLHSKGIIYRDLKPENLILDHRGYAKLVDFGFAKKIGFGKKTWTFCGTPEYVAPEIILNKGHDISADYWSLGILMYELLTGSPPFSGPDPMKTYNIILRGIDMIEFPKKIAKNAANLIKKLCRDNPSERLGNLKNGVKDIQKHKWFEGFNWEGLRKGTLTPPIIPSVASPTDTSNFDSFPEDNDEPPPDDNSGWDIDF

[2] = species: Rattus norvegicus; experiment: Inhibition of Rolipram at 10 µM in the Eurofins-Panlabs radioligand binding assay (Eurofins_assay_268811); assay type: protein assay; design: ligand concentration 1.8 nM; conditions: Compound concentration 10.0 uM
[3] = molecular target: Mitogen-activated protein kinase 9 (Homo sapiens) (UniProt P45984); experiment: JNK2alpha2 (h) Millipore kinase activity assay; conditions: Compound concentration 1.0 uM
Mitogen-activated protein kinase 9 (Homo sapiens), sequence (P45984 whole entry, looked up): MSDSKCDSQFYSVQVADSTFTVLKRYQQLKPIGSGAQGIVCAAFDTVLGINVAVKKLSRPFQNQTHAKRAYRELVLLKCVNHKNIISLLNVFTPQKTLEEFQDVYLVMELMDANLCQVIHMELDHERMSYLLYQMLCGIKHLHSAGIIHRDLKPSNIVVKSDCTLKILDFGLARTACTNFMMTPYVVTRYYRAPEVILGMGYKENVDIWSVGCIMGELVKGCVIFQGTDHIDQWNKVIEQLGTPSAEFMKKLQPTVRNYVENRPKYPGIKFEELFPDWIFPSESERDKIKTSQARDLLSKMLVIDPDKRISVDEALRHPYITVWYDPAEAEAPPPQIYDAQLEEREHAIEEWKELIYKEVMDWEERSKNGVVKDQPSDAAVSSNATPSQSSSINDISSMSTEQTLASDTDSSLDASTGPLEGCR

[4] = molecular target: Ephrin type-A receptor 5 (Homo sapiens) (UniProt P54756); experiment: EphA5 (h) Millipore kinase activity assay; conditions: Compound concentration 1.0 uM
[5] = molecular target: T1, cGMP-dependent protein kinase 1 (Homo sapiens); experiment: PKG1alpha (h) Millipore kinase activity assay; conditions: Compound concentration 1.0 uM
[6] = species: Rattus norvegicus; conditions: Compound concentration 10.0 uM
[7] = molecular target: Prostaglandin E2 receptor EP4 subtype (Homo sapiens) (UniProt P35408); experiment: Inhibition of Prostanoid EP4 at 10 µM in the Eurofins-Panlabs radioligand binding assay (Eurofins_assay_268420); design: ligand concentration 1 nM; conditions: Compound concentration 10.0 uM
[8] = molecular target: Tyrosine-protein kinase receptor TYRO3 (Homo sapiens) (UniProt Q06418); experiment: Rse (h) Millipore kinase activity assay; conditions: Compound concentration 1.0 uM
[9] = molecular target: Serine/threonine-protein kinase 17A (Homo sapiens) (UniProt Q9UEE5); experiment: DRAK1 (h) Millipore kinase activity assay; conditions: Compound concentration 1.0 uM
[10] = molecular target: Tyrosine-protein kinase ABL2 (Homo sapiens) (UniProt P42684); experiment: Arg (h) Millipore kinase activity assay; conditions: Compound concentration 1.0 uM
[11] = molecular target: T2, Hepatocyte growth factor receptor (Homo sapiens, UniProt P08581); experiment: Met (h) Millipore kinase activity assay; conditions: Compound concentration 1.0 uM
T2 sequence (P08581 whole entry): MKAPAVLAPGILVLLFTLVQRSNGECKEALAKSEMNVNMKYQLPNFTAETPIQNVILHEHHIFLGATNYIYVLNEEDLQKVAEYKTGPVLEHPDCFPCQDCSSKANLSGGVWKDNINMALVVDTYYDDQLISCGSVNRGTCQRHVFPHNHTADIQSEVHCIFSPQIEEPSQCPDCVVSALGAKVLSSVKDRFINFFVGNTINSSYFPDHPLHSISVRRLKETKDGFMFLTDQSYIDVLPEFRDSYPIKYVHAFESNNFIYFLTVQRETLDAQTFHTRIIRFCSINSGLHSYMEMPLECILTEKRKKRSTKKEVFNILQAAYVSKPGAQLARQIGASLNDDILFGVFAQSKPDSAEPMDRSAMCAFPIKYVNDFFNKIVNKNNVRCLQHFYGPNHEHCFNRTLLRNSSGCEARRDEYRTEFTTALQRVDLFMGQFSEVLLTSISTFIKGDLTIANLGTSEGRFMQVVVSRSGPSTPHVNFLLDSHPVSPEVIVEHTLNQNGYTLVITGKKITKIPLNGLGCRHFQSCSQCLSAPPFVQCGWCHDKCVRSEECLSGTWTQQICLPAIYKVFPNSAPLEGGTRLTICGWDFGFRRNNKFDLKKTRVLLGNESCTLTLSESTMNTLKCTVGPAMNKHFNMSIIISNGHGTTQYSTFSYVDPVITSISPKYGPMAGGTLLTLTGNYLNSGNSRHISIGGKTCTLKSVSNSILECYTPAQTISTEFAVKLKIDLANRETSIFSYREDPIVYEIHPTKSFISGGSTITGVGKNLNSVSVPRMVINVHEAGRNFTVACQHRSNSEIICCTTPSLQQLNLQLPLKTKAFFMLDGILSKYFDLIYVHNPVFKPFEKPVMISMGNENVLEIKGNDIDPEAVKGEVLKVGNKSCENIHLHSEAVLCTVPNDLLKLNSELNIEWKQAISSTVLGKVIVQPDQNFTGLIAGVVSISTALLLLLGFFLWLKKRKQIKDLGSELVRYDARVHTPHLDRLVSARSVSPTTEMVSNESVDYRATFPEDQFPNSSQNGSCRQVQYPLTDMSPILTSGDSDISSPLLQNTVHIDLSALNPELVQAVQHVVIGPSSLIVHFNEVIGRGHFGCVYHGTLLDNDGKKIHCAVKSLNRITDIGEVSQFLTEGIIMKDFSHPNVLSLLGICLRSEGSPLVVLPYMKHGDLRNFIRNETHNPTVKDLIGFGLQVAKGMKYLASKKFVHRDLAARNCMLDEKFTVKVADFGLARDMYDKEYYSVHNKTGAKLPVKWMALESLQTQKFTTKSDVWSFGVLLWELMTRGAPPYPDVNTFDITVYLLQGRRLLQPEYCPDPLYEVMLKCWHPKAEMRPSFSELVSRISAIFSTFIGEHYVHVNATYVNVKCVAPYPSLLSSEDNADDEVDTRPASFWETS

[12] = molecular target: D(1A) dopamine receptor (Homo sapiens) (UniProt P21728); conditions: Compound concentration 10.0 uM
[13] = molecular target: Serine/threonine-protein kinase PAK 6 (Homo sapiens) (UniProt Q9NQU5); experiment: PAK6 (h) Millipore kinase activity assay; conditions: Compound concentration 1.0 uM
[14] = system: Phosphatidylinositol 4,5-bisphosphate 3-kinase catalytic subunit alpha isoform (Homo sapiens), P42336 [E542K]; conditions: Compound concentration 1000.0 nM
[15] = molecular target: Transient receptor potential cation channel subfamily M member 6 (Homo sapiens) (UniProt Q9BX84); conditions: Compound concentration 1000.0 nM
[16] = molecular target: T2, Hepatocyte growth factor receptor; conditions: Compound concentration 1000.0 nM
[17] = molecular target: Ephrin type-B receptor 6 (Homo sapiens) (UniProt O15197); conditions: Compound concentration 1000.0 nM
[18] = molecular target: Casein kinase I isoform gamma-2 (Homo sapiens) (UniProt P78368); conditions: Compound concentration 1000.0 nM
Casein kinase I isoform gamma-2 (Homo sapiens), sequence (P78368 whole entry, looked up, canonical isoform): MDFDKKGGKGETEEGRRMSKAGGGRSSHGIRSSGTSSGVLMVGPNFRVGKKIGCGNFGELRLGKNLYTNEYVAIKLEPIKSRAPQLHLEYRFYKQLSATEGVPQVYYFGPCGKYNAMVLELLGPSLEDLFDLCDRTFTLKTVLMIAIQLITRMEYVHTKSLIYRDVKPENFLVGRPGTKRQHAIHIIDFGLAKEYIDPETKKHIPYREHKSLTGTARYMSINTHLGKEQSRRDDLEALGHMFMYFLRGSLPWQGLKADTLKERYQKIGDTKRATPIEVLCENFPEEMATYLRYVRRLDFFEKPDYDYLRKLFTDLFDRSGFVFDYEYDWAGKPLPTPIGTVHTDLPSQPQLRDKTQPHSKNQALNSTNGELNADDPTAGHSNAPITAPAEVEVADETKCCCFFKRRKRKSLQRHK

[19] = molecular target: Ephrin type-A receptor 4 (Homo sapiens) (UniProt P54764); conditions: Compound concentration 1000.0 nM
[20] = molecular target: cAMP-dependent protein kinase catalytic subunit PRKX (Homo sapiens) (UniProt P51817); conditions: Compound concentration 1000.0 nM
[21] = molecular target: Epithelial discoidin domain-containing receptor 1 (Homo sapiens) (UniProt Q08345); conditions: Compound concentration 1000.0 nM
Epithelial discoidin domain-containing receptor 1 (Homo sapiens), sequence (Q08345 whole entry, the tested form may be a part): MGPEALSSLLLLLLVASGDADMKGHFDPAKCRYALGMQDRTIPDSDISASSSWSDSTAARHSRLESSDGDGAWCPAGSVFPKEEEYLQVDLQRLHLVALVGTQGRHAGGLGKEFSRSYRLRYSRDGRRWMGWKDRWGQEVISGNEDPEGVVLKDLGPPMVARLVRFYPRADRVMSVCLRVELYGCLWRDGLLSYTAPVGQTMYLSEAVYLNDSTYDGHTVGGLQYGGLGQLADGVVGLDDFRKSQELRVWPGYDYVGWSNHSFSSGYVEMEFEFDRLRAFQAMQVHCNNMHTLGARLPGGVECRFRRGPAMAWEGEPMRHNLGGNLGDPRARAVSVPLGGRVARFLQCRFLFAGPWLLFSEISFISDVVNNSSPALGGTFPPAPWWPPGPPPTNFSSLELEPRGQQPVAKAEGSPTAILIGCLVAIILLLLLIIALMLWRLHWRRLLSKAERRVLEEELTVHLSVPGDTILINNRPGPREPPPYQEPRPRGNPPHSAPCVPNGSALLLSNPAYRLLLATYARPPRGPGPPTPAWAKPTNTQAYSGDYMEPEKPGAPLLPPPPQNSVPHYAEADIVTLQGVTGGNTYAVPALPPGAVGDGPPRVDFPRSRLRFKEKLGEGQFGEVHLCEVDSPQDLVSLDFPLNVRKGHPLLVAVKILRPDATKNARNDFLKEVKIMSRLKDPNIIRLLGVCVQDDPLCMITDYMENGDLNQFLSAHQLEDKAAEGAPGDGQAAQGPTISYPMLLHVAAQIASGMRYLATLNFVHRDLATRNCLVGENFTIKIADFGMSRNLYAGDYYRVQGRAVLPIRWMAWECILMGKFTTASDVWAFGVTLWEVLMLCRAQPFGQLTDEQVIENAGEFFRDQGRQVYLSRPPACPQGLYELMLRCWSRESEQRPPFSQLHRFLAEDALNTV

[22] = molecular target: Tyrosine-protein kinase JAK2 (Homo sapiens) (UniProt O60674); conditions: Compound concentration 1000.0 nM
[23] = molecular target: Phosphatidylinositol 4-phosphate 5-kinase type-1 alpha (Homo sapiens) (UniProt Q99755); conditions: Compound concentration 1000.0 nM
[24] = system: Mast/stem cell growth factor receptor Kit (Homo sapiens), P10721 [V559D]; conditions: Compound concentration 1000.0 nM
[25] = molecular target: Ribosomal protein S6 kinase alpha-2 (Homo sapiens) (UniProt Q15349); conditions: Compound concentration 1000.0 nM
[26] = molecular target: Phosphatidylinositol 4,5-bisphosphate 3-kinase catalytic subunit gamma isoform (Homo sapiens) (UniProt P48736); conditions: Compound concentration 1000.0 nM
[27] = system: Tyrosine-protein kinase ABL1 (Homo sapiens), P00519 [T315I]; conditions: Compound concentration 1000.0 nM
[28] = molecular target: Death-associated protein kinase 2 (Homo sapiens) (UniProt Q9UIK4); conditions: Compound concentration 1000.0 nM
Death-associated protein kinase 2 (Homo sapiens), sequence (Q9UIK4 whole entry, looked up): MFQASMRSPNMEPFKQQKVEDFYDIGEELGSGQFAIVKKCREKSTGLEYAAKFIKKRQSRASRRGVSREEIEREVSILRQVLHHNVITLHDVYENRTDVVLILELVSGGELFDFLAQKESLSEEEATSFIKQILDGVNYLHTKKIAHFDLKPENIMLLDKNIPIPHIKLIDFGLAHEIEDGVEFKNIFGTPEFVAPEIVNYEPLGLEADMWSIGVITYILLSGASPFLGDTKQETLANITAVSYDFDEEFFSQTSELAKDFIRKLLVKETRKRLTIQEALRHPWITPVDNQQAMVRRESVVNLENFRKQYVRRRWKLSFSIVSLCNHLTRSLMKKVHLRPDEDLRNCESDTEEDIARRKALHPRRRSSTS

[29] = molecular target: Insulin receptor (Homo sapiens) (UniProt P06213); conditions: Compound concentration 1000.0 nM
[30] = molecular target: Serine/threonine-protein kinase 35 (Homo sapiens) (UniProt Q8TDR2); conditions: Compound concentration 1000.0 nM
Serine/threonine-protein kinase 35 (Homo sapiens), sequence (Q8TDR2 whole entry): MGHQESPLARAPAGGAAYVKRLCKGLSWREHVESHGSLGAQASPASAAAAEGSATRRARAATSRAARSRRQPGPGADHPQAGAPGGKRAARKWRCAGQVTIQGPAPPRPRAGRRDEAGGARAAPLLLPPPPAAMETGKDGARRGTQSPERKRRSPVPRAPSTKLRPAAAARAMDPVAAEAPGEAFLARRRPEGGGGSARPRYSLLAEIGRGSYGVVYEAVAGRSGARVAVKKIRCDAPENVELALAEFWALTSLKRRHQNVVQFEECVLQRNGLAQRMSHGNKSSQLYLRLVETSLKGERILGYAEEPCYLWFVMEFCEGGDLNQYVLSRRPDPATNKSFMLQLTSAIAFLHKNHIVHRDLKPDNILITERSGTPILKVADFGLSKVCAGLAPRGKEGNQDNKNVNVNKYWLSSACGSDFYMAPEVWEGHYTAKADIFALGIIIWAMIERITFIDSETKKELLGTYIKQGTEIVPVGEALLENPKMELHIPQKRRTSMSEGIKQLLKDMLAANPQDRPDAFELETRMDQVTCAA

[31] = molecular target: Tyrosine-protein kinase HCK (Homo sapiens) (UniProt P08631); conditions: Compound concentration 1000.0 nM
[32] = molecular target: Receptor-interacting serine/threonine-protein kinase 4 (Homo sapiens) (UniProt P57078); conditions: Compound concentration 1000.0 nM
[33] = molecular target: Mitogen-activated protein kinase kinase kinase 6 (Homo sapiens) (UniProt O95382); conditions: Compound concentration 1000.0 nM
[34] = molecular target: Activated CDC42 kinase 1 (Homo sapiens) (UniProt Q07912); conditions: Compound concentration 1000.0 nM
[35] = molecular target: Tyrosine-protein kinase Lyn (Homo sapiens) (UniProt P07948); conditions: Compound concentration 1000.0 nM
Tyrosine-protein kinase Lyn (Homo sapiens), sequence (P07948 2-512 limits assumed): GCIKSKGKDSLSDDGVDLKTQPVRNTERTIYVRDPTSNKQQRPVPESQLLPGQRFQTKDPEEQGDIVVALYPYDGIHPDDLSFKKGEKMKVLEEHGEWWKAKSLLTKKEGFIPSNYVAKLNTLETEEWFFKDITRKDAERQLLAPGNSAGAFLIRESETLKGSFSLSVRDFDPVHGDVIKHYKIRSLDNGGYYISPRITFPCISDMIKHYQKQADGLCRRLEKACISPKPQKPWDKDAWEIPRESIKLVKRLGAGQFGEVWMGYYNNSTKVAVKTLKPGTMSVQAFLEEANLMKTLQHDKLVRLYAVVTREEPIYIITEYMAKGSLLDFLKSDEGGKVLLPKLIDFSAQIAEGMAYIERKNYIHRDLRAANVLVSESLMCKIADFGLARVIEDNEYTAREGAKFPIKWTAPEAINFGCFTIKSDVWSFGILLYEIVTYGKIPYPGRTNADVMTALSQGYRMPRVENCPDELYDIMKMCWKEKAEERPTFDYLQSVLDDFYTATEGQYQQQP

[36] = system: Tyrosine-protein kinase ABL1 (Homo sapiens), P00519 [F317I]; conditions: Compound concentration 1000.0 nM
[37] = molecular target: Mitogen-activated protein kinase 10 (Homo sapiens) (UniProt P53779); conditions: Compound concentration 1000.0 nM
Mitogen-activated protein kinase 10 (Homo sapiens), sequence (P53779 whole entry): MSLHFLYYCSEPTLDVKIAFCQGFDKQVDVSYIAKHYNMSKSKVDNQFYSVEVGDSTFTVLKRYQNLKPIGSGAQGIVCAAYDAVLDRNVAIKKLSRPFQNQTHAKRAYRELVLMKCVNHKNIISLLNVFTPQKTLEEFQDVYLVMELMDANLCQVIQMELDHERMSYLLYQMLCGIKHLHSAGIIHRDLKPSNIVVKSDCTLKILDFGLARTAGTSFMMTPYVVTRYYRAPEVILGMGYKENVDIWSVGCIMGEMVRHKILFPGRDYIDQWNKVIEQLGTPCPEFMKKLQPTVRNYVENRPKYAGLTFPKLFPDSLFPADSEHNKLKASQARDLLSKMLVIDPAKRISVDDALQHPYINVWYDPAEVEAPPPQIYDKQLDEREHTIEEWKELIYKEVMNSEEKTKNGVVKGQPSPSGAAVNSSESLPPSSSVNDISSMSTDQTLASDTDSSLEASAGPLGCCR

Question: How did the inhibition [1] turn out when CC1=C(C#N)C(c2ccc3[nH]nc(C)c3c2)C(C#N)=C(C)N1 [BAY-474] was run?
Answer: The inhibition was 16%.

Question: What about the inhibition [2] of the same compound?
Answer: The inhibition was 10%.

Question: What about the inhibition [3] of the same compound?
Answer: The inhibition was 17%.

Question: What about the inhibition [4] of the same compound?
Answer: Its inhibition is -1%.

Question: And the inhibition [5]?
Answer: Its inhibition is 7%.

Question: What about the inhibition [6] of the same compound?
Answer: Its inhibition is 1%.

Question: And the inhibition [7]?
Answer: Its inhibition is 19%.

Question: What about the inhibition [8] of the same compound?
Answer: The inhibition was 28%.

Question: And the inhibition [9]?
Answer: Its inhibition is -6%.

Question: What about the inhibition [10] of the same compound?
Answer: The inhibition was 26%.

Question: And the inhibition [11]?
Answer: Its inhibition is 82%.

Question: What about the inhibition [12] of the same compound?
Answer: Its inhibition is 3%.

Question: And the inhibition [13]?
Answer: Its inhibition is 7%.

Question: What does the source list for CC1=C(C#N)[C@@H](c2ccc3[nH]nc(C)c3c2)C(C#N)=C(c2ccc(Cl)cc2)N1 [BAY-827]?
Answer: residual activity [14]: 78.6%; residual activity [15]: 100%; residual activity [16]: 17.2%; residual activity [17]: 100%; residual activity [18]: 100%; residual activity [19]: 96.4%; residual activity [20]: 100%; residual activity [21]: 84.5%; residual activity [22]: 100%; residual activity [23]: 100%; residual activity [24]: 100%; residual activity [25]: 100%; residual activity [26]: 100%; residual activity [27]: 100%; residual activity [28]: 100%; residual activity [29]: 100%; residual activity [30]: 100%; residual activity [31]: 100%; residual activity [32]: 71.8%; residual activity [33]: 83.2%; residual activity [34]: 100%; residual activity [35]: 96.8%; residual activity [36]: 100%; residual activity [37]: 68.8%
